What is called MIC is the lowest concentration found to suppress growth. The low end stands for inhibition by little substance, the high end for a need for much substance. As a reminder, the IC50 is the midpoint of a concentration-inhibition curve. High values mean lower potency, low ones higher potency. Usually Ki stands for a measure of affinity in units of concentration, obtained from inhibition or displacement. Low readings indicate higher affinity, high ones lower affinity. As a reminder, the half-life is the time in which the quantity being followed falls by half. The low end stands for rapid decline, the high end for slow decline.

Values after ≈ are worked out from the molar mass of the structure shown. Active and inactive are the calls of the source. No cut-off for these calls is given here. Some results are limits rather than exact numbers.

The test system of data set [1] is Pseudomonas aeruginosa. Put plainly: Antibacterial activity against wild type Pseudomonas aeruginosa UI-18 by NCCLS method. The class given is functional.
For data set [2], the target named is T1, UDP-3-O-acyl-N-acetylglucosamine deacetylase (Pseudomonas aeruginosa (strain ATCC 15692 / PAO1 / 1C / PRS 101 / LMG12228), UniProt P47205).
T1 sequence (P47205 whole entry): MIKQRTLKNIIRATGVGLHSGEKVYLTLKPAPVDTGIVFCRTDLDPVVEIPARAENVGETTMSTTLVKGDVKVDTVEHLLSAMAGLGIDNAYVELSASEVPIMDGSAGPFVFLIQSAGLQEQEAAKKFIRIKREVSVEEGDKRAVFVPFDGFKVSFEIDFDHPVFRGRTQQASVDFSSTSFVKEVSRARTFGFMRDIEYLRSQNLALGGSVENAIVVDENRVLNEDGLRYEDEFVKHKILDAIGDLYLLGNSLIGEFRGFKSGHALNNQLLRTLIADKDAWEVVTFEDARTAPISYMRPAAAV
Put plainly: Inhibition of Pseudomonas aeruginosa LpxC.

The test system of data set [3] is Pseudomonas aeruginosa. Put plainly: Antibacterial activity against efflux pump knock-down Pseudomonas aeruginosa PAO280 by twofold broth microdilution technique. The class given is functional. On the technique in general: In broth dilution the organism is exposed to a series of concentrations in liquid medium.
For data set [4], the system named is Pseudomonas aeruginosa. Put plainly: Antibacterial activity against Pseudomonas aeruginosa C53. The class given is functional.
The target in data set [5] is T2, UDP-3-O-acyl-N-acetylglucosamine deacetylase (Escherichia coli K-12, UniProt P0A725).
T2 sequence (P0A725 whole entry): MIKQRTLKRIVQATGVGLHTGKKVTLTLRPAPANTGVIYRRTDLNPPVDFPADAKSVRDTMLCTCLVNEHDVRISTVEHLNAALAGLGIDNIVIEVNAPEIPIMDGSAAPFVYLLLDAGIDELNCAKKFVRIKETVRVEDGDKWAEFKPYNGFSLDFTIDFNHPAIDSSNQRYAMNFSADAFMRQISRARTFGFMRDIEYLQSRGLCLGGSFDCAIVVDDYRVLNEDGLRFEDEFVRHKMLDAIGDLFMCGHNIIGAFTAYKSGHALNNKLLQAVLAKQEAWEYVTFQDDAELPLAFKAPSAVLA
Put plainly: Inhibition of Escherichia coli LpxC.

Data set [6] is described as follows: Half life in rat hepatocytes. In kind it is ADME, cell-based, Liver, Hepatocyte.
The nature of data set [7]: Half life in human hepatocytes. The class given is ADME, cell-based, Liver, Hepatocyte.
In data set [8] the test system is Pseudomonas aeruginosa. Put plainly: Antibacterial activity against wild type Pseudomonas aeruginosa. In kind it is functional.
The nature of data set [9]: Kinetic solubility of the compound. As to conditions: read-out: Kinetic_solubility. In kind it is physicochemical.
A short description of data set [10]: Kinetic solubility of the compound at pH 6.5. In kind it is physicochemical. As to conditions: buffer, read-out: Kinetic_solubility.
Data set [11] concerns Pseudomonas aeruginosa. Put plainly: Antibacterial activity against wild type Pseudomonas aeruginosa UI-18 infected in iv dosed mouse. In kind it is functional. As to conditions: UI-18, iv, read-out: PD50.
The test system of data set [12] is Pseudomonas aeruginosa. Put plainly: Antibacterial activity against wild type Pseudomonas aeruginosa UI-18 infected in sc dosed mouse. The class given is functional, organism-based.

For the molecule `C[C@](OCc1ccc(-c2ccccc2)cc1)(C(=O)NO)[C@@H](O)c1ccccn1`, the MIC in data set [1] was found to be 32 µg/mL (≈ 84.6 µM); in data set [3], 0.25 µg/mL (≈ 0.661 µM). In [2], this molecule gave an IC50 of 15 nM.
On to `CCCC[C@H](O)[C@](C)(OCc1ccc(-c2ccccc2)cc1)C(=O)NO`, for which inhibition in [2] was half-maximal at 90 nM (IC50).
Regarding `O=C(NO)[C@@H](Cc1ccc2ccccc2c1)NS(=O)(=O)c1ccc2ccccc2c1`, in [4], the MIC worked out at 4 µg/mL (≈ 9.51 µM). In [5], the Ki was 20 nM.
For the molecule `CCc1ccc(-c2ccc(C(=O)N[C@H](C(=O)NO)[C@@H](C)O)cc2)cc1`, the half-life was 0.75 h in [6] and 3.83 h in [7]. It took 8 nM to reach half-maximal inhibition in data set [2] (IC50). This molecule yielded an MIC in data set [8] of 4 µg/mL (≈ 11.7 µM).
As to `CC(CO)(COc1ccc(-c2ccccc2)cc1)C(=O)NO` (configuration not stated), the solubility kinetic in data set [9] turned out to be 26 µM (≈ 7.83 µg/mL). In addition, the half-life in data set [7] is 1.43 h. The molecule further yielded an IC50 in data set [2] of 390 nM.
As to `CC[C@H](O)[C@@](C)(OCc1ccc(-c2ccccc2)cc1)C(=O)NO`, the MIC in data set [1] was over 64 µg/mL; in data set [3], 3 µg/mL (≈ 9.11 µM). The same molecule yielded an IC50 in [2] of 8 nM.
`Cc1cc([C@H](O)[C@](C)(OCc2ccc(-c3ccccc3)cc2)C(=O)NO)no1`: the MIC in data set [1] was 1.75 µg/mL (≈ 4.58 µM); in [3], 0.015 µg/mL (≈ 0.0392 µM). In data set [7], the half-life turned out to be 0.333 h. Also, in data set [10], the solubility kinetic was 59 µM (≈ 22.6 µg/mL).
With `C[C@@](OCc1ccc(-c2ccccc2)cc1)(C(=O)NO)[C@@H](O)c1c[nH]cn1`, the minimal inhibitory concentration (MIC) in data set [1] was determined as 8 µg/mL (≈ 21.8 µM); in data set [3], 0.125 µg/mL (≈ 0.34 µM). The same molecule showed an IC50 in [2] of 0.8 nM.
Regarding `CC(CO)(NC(=O)c1ccc(-c2ccccc2)cc1)C(=O)NO` (racemic), the figures for the MIC in [1], in [8] and in data set [3] were over 64 µg/mL, over 64 µg/mL and 32 µg/mL (≈ 102 µM), respectively. Further, the solubility kinetic in data set [9] stood at 200 µM (≈ 62.9 µg/mL). Moreover, the half-life in [6] worked out at 3.67 h; in data set [7] it was 3.83 h. The same molecule returned an IC50 in [2] of 286 nM.
Regarding `CC(CO)(CCc1ccc(-c2ccccc2)cc1)C(=O)NO` (configuration not stated), the minimum inhibitory concentration (MIC) in data set [1] was 16 µg/mL (≈ 53.4 µM); in data set [3], 0.5 µg/mL (≈ 1.67 µM). In data set [9], the solubility kinetic came to 89 µM (≈ 26.6 µg/mL). Besides, the half-life in [7] is 1.2 h. In addition, in data set [2], the half-inhibitory concentration (IC50) was 3.3 nM.
`Cn1nncc1[C@H](O)[C@](C)(OCc1ccc(-c2ccccc2)cc1)C(=O)NO`: the minimal inhibitory concentration (MIC) is over 64 µg/mL in [1] and 2 µg/mL (≈ 5.23 µM) in [3]. In data set [2], this molecule returned an IC50 of 26 nM.
The matching figures for `C[C@@](OCc1ccc(-c2ccccc2)cc1)(C(=O)NO)[C@@H](O)c1cccnc1`: 32 µg/mL (≈ 84.6 µM), 0.5 µg/mL (≈ 1.32 µM) and 18 nM.
With `C[C@@](OCc1ccc(-c2ccccc2)cc1)(C(=O)NO)[C@@H](O)c1ccon1`, the MIC in [1] amounted to 6 µg/mL (≈ 16.3 µM); in data set [3], 0.06 µg/mL (≈ 0.163 µM). Moreover, in data set [2], the IC50 is 0.4 nM.
`C[C@@](OCc1ccc(-c2ccccc2)cc1)(C(=O)NO)[C@@H](O)c1ncco1`: the MIC was 8 µg/mL (≈ 21.7 µM) in data set [1] and 0.25 µg/mL (≈ 0.679 µM) in [3]. This molecule had a half-inhibitory concentration (IC50) in data set [2] of 3 nM.
On to `CC(CO)(OCc1ccc(-c2ccccc2)cc1)C(=O)NO` (racemic), for which the minimum inhibitory concentration (MIC) in data set [1] is over 64 µg/mL; in [8] it was over 64 µg/mL; in data set [3], 4 µg/mL (≈ 13.3 µM). Further, the solubility kinetic in data set [9] was 200 µM (≈ 60.3 µg/mL). For the same molecule, in data set [7], the half-life came to 6 h. In data set [2], this molecule showed an IC50 of 22 nM.
With `C[C@@H](O)[C@](C)(OCc1ccc(-c2ccccc2)cc1)C(=O)NO`, the MIC is 64 µg/mL (≈ 203 µM) in data set [1] and 0.75 µg/mL (≈ 2.38 µM) in [3]. The same molecule registered an IC50 in data set [2] of 4 nM.
Take `CC(C)[C@H](O)[C@](C)(OCc1ccc(-c2ccccc2)cc1)C(=O)NO`: the MIC in [1] was over 64 µg/mL; in data set [3] it was 32 µg/mL (≈ 93.2 µM).
Regarding `C[C@H](O)[C@](C)(OCc1ccc(-c2ccccc2)cc1)C(=O)NO`, the values for the MIC in data set [1] and in data set [3] were 32 µg/mL (≈ 101 µM) and 0.5 µg/mL (≈ 1.59 µM), respectively.
As for `C[C@@](OCc1ccc(-c2ccccc2)cc1)(C(=O)NO)[C@@H](O)c1cc(CO)on1`, the MIC in data set [1] stood at 1 µg/mL (≈ 2.51 µM); in data set [3], 0.015 µg/mL (≈ 0.0376 µM). Besides, in [11], the ED50 is 37 mg/kg. In data set [12], the result was inactive. The molecule further showed a half-life in [7] of 2.33 h. In [2], this molecule yielded an IC50 of 0.6 nM. Further, the solubility kinetic in data set [10] is 130 µM (≈ 51.8 µg/mL).
Turning to `CC(C)C[C@H](O)[C@](C)(OCc1ccc(-c2ccccc2)cc1)C(=O)NO`, the results for the minimum inhibitory concentration (MIC) in data set [1] and in data set [3] were over 64 µg/mL and 64 µg/mL (≈ 179 µM), respectively.
For `C[C@@](OCc1ccc(-c2ccccc2)cc1)(C(=O)NO)[C@@H](O)c1ccccc1`, the figures for the MIC in data set [1] and in data set [3] were over 64 µg/mL and 8 µg/mL (≈ 21.2 µM), respectively. Moreover, the IC50 in [2] was 51 nM.
Turning to `C[C@@](OCc1ccc(-c2ccccc2)cc1)(C(=O)NO)[C@@H](O)c1ccn[nH]1`, the MIC in data set [1] was 4 µg/mL (≈ 10.9 µM); in data set [3], 0.25 µg/mL (≈ 0.68 µM). The molecule further had an IC50 in data set [2] of 0.4 nM.
On to `C[C@@H](N)[C@@H](NC(=O)N1CCN(c2ccc(C#Cc3ccccc3)cc2)CC1)C(=O)NO`, for which the MIC in data set [8] came out at 12.5 µg/mL (≈ 29.7 µM).
Take `C[C@@](OCc1ccc(-c2ccccc2)cc1)(C(=O)NO)[C@@H](O)c1ccno1`: the results for the MIC in [1] and in data set [3] were 8 µg/mL (≈ 21.7 µM) and 0.125 µg/mL (≈ 0.339 µM), respectively. This molecule also displayed an IC50 in data set [2] of 0.8 nM.
On to `Cn1ccnc1[C@H](O)[C@](C)(OCc1ccc(-c2ccccc2)cc1)C(=O)NO`, for which the MIC stood at 33 µg/mL (≈ 86.5 µM) in data set [1] and 0.19 µg/mL (≈ 0.498 µM) in [3]. The molecule further showed a concentration for half-maximal inhibition (IC50) in data set [2] of 25 nM.
In the same order, the values of `CCOCC[C@H](O)[C@](C)(OCc1ccc(-c2ccccc2)cc1)C(=O)NO` are over 64 µg/mL, over 64 µg/mL and 28 nM.
On to `CC(C)(OCc1ccc(-c2ccccc2)cc1)C(=O)NO`, for which, in data set [2], the IC50 was 311 nM. This molecule yielded an MIC in [8] of over 64 µg/mL.

The record behind these values is ChEMBL document CHEMBL2010716, “Structure based design of an in vivo active hydroxamic acid inhibitor of P. aeruginosa LpxC” (Bioorg Med Chem Lett, 2012).
